Test results from patent US20240293367A1, “METHODS OF TREATING DISORDERS WITH A […]” (Cybin IRL Limited, priority 2023, published 2024).
Where a name gives a salt, the structure may show the parent alone. Read-outs that look alike come from different tables or passages of the source.

What was measured:
[1] = system: MDD patients; conditions: cited from earlier work; for placebo subtracted difference in (LSM) change from baseline MADRS total score: pivotal clinical studies, package inserts; for placebo subtracted difference in LSM change from baseline on MADRS score: adjunctive to antidepressants
[2] = Clinical PD of psilocin after psilocybin (VAS-Any drug effect, MEQ30, 5D-ASC versus psilocin Cmax); format: in vivo, human
Excerpt: To evaluate potential psychedelic effects at various doses of psilocin-d10, data were summarized/modeled from published literature for psilocin after psilocybin administration.
First, the VAS—Any drug effect score was modeled based on data from Holze et al. 2022 using a linear effect relationship to determine psilocin plasma concentrations in which a VAS—Any drug effect score of 20, 40, 60, and 80 mm was reached. This relationship is presented graphically in FIG. 4, based on the extraction of mean PK and PD data from the figures in Holze et al. 2022. Here, a linear concentration-effect relationship was identified with no evidence of hysteresis. As is evident from this modeled linear concentration-effect relationship according to Holze et al. 2022 (y=0.17+3.9x), a psilocin plasma concentration of about 15.34 ng/ml is the predicted amount required to achieve VAS-Any drug effect scores above 60 mm, a psilocin plasma concentration of about 17.9 ng/ml is the predicted amount required to achieve VAS-Any drug effect scores above 70 mm, and a psilocin plasma concentration of about 20.47 ng/ml is the predicted amount required to achieve a VAS-Any drug effect score of 80 mm.
This modeled relationship between psilocin plasma concentration and VAS-Any drug effect score is also in agreement with reported literature studies relating plasma psilocin concentrations (μg/L) to neocortical serotonin 5-HT2A receptor occupancy % and subjective intensity of the psychedelic experience (see Madsen MK, Fisher PM, Burmester D, et al (2019). Psychedelic effects of psilocybin correlate with serotonin 2A receptor occupancy and plasma psilocin levels. Neuropsychopharmacology, 44:1328-34), albeit the Madsen et al. study uses a VAS scoring system related specifically to psychedelic effects. The psilocin concentrations needed to reach the plateau in receptor occupancy and the required VAS scores (psychedelic effects) can be seen graphically in FIG. 5 and FIGS. 6A-6B, which are reproduced from Madsen et al. 2019 (FIGS. 3 and 4, respectively, in Madsen et al. 2019). […]

[3] = 28-day (4-week GLP) toxicology study in dogs, toxicokinetic exposure; conditions: dog, in vivo, 0.5 mg/kg; internal 4-week GLP toxicology study; read-out: Dog Cmax at 0.5 mg/kg
Excerpt: The exposure limits will be applied on mean values within a cohort.

[4] = psilocin after psilocybin, Studerus et al. 2011; cited from earlier work
[5] = female, rat, in vivo, 40 mg/kg
[6] = linear model of Holze et al. 2022 data

In the case of `N#Cc1ccc2[nH]cc(CCCCN3CCN(c4ccc5oc(C(N)=O)cc5c4)CC3)c2c1` [vilazodone hydrochloride], the “placebo subtracted difference in (LSM) change from baseline MADRS total score” value [1] is listed as −2.5 to −5.1.

In the case of `CCN(CC)C(=O)[C@@]1(c2ccccc2)C[C@H]1CN` [levomilnacipram], the “placebo subtracted difference in (LSM) change from baseline MADRS total score” value [1] is given as −3.1 to −4.9.

With `CN(C)CCc1c[nH]c2cccc(O)c12` [psilocin, 4-hydroxy-N,N-dimethyltryptamine] the “psilocin plasma concentration predicted for VAS-Any drug effect scores above 70 mm” value ([2]; linear concentration-effect model) was “about 17.9 ng/ml”, the “psilocin Cmax / plasma concentration for VAS - Any drug effect: 20” value [2, 6] was 5.08 ng/mL and the “psilocin Cmax / plasma concentration for VAS - Any drug effect: 40” value [2, 6] was 10.2 ng/mL. For the same molecule, the Cmax [3] was 51.7 ng/mL, the “psilocin Cmax with no change in list of complaints + 5D-ASC” value [4] was 1.83 ng/mL and the Cmax [5] was 343 ng/mL.

In the case of `Cc1ccc(Sc2ccccc2N2CCNCC2)c(C)c1` [vortioxetine], the “difference in mean change from baseline of MADRS scores between placebo and drug” value ([1]; 20 mg, meta-analysis of 11 placebo-controlled trials) is given as 4.57 and the “placebo subtracted difference in (LSM) change from baseline MADRS total score” value [1] is given as −2.8 to −5.9.

In the case of `CN(C)C(=O)N[C@H]1CC[C@H](CCN2CCN(c3cccc(Cl)c3Cl)CC2)CC1` [cariprazine], the “placebo subtracted difference in LSM change from baseline on MADRS score” value ([1]; 1.5 mg/day fixed dose, 95% CI: −4.2, −0.9) is given as −2.5, the “placebo subtracted difference in LSM change from baseline on MADRS score” value ([1]; flexible doses of 2-4.5 mg/day, 95% CI: −3.7, −0.6) is given as −2.2 and the “placebo subtracted difference in (LSM) change from baseline MADRS total score” value [1] is given as −2.2 to −2.5.

For `CN(C)CCc1c[nH]c2ccccc12` [N,N-dimethyltryptamine (DMT), N,N-dimethyltryptamine], the “MADRS CFB reduction over placebo” value ([1]; intravenous, two-weeks postdose, Small Pharma press release) is given as −7.4.
